SMILES strings stand for the structures.

The subject of test [1] is Catharanthus roseus. The test is described as follows: Substrate specificity for NADPH-dependent dehydrogenase of catharanthus roseus supernatant fraction. The class given is functional.
The subject of test [2] is Catharanthus roseus. The test is described as follows: Substrate specificity for NADPH-dependent dehydrogenase of catharanthus roseus membrane fraction. The class given is functional.

Regarding `CCOC(=O)C(=O)CC`, the Activity in the test with Catharanthus roseus [1] was determined as 68; in the test on Catharanthus roseus [2], 65.
As to `CC=O` [ACETALDEHYDE], the Activity in the test on Catharanthus roseus [1] and with Catharanthus roseus [2] was 0 in each case.
Turning to `O=CC(O)CO` (stereo not drawn), the Activity with Catharanthus roseus [1] and with Catharanthus roseus [2] was 0 throughout.
On to `CCC(=O)C(=O)O`, for which the Activity in the test on Catharanthus roseus [1] and with Catharanthus roseus [2] was 0 in each case.
Take `CC(C)CC(=O)C(=O)O` [2-Oxoisohexanoate]: the Activity in the test on Catharanthus roseus [1] and in the test with Catharanthus roseus [2] was 0 throughout.
On to `CCOC(=O)CC(C)=O`, for which the Activity with Catharanthus roseus [1] and with Catharanthus roseus [2] was 0 each time.
In the case of `CCCCCCCCC(=O)C(F)(F)F`, the Activity with Catharanthus roseus [1] and in the test on Catharanthus roseus [2] was 0 in each case.
Consider `CCCCCC(=O)C(=O)OCC`, for which the Activity in the test on Catharanthus roseus [1] and in the test on Catharanthus roseus [2] was 50 each time.
Take `O=C(c1ccccc1)C(F)(F)F`: the Activity stood at 65 with Catharanthus roseus [1] and 6 with Catharanthus roseus [2].
Take `COC(=O)CC(=O)CCl`: the Activity in the test on Catharanthus roseus [1] is 12; with Catharanthus roseus [2] it was 0.
For the compound `CCOC(=O)C(=O)C(C)C`, the Activity in the test with Catharanthus roseus [1] and in the test on Catharanthus roseus [2] was 100 in each case.
As to `CCOC(=O)C(C)C(C)=O` (stereo not drawn), the Activity was determined as 29 in the test with Catharanthus roseus [1] and 0 in the test with Catharanthus roseus [2].
`CC(C)C(=O)C(=O)O` [2-Oxoisovalerate]: the Activity in the test on Catharanthus roseus [1] and in the test on Catharanthus roseus [2] was 0 throughout.
On to `CCOC(=O)C(C)=O` [ETHYL PYRUVATE], for which the figures for the Activity with Catharanthus roseus [1] and in the test on Catharanthus roseus [2] were 70 and 59, respectively.

The values are drawn from ChEMBL document CHEMBL1151547, “Enantioselective reduction of ethyl 3-methyl-2-oxobutanoate by an enzymatic system from callus of catharanthus roseus” (1994).
